In US10533015B1, “Opioid receptor antagonist prodrugs” (Nirsum Laboratories, Inc., priority 2019, dated 2020):
Read-outs that look alike come from different tables or passages of the source.

Columns and labels:
[1] = Plasma stability assay, rat plasma; assay type: in vitro ADME; conditions: 10 μM, 37° C.
Description: Plasma stability determination of the test compounds in rat, dog, cynomolgus monkey and human plasma is performed using HPLC-MS. For rat, incubations are carried out in 96-well polypropylene plates in 5 aliquots of 70 μL each (one for each time point). […] Five time points are analyzed (0, 15, 120, 480 and 1440 min). For dog, monkey and human, test compounds (2 μM, final solvent concentration 1%) were also incubated at 37° C. and analyzed at five time points (0, 10, 30, 60 and 120 min). All incubations are performed in duplicates. The samples are analyzed by HPLC-MS. The percentage of parent compound remaining after incubation in plasma is determined.

[2] = heating temp. 60 °C, obs. temp. 25 °C
[3] = heating temp. 40 °C, obs. temp. 40 °C

SMILES | Approximate Solubility (mg/mL) in Excipient: Cottonseed oil [2] [mg/mL] | Approximate Solubility (mg/mL) in Excipient: Sesame oil [2] [mg/mL] | Equilibrium solubility (mg/mL) Water [3] [mg/mL] | % remaining at time point ([1]; 0 min) [%] | % remaining at time point ([1]; 15 min) [%] | % remaining at time point ([1]; 120 min) [%] | % remaining at time point ([1]; 480 min) [%] | % remaining at time point ([1]; 1440 min) [%] | Approximate Solubility (mg/mL) in Excipient: Castor oil (Castor oil, heating temp. 40 °C, obs. temp. 40 °C) [mg/mL] | Approximate Solubility (mg/mL) in Excipient: Cottonseed oil [3] [mg/mL] | Approximate Solubility (mg/mL) in Excipient: Ethanol (Ethanol, heating temp. 40 °C, obs. temp. 40 °C) [mg/mL] | Approximate Solubility (mg/mL) in Excipient: Sesame oil [3] [mg/mL] | Approximate Solubility (mg/mL) in Excipient: Sesame oil (heating temp. 60 °C, obs. temp. 40 °C) [mg/mL]
C=C1CC[C@@]2(O)C3Cc4ccc(OC(=O)OCCCCCCCCCCCCC)c5c4[C@@]2(CCN3CC2CC2)[C@H]1O5 [Compound 30, (4aS,7aS,12bS)-3-(cyclopropylmethyl)-4a-hydroxy-7-methylene-2,3,4,4a,5,6,7,7a-octahydro-1H-4,12-methanobenzofuro[3,2-e]isoquinolin-9-yl tridecyl carbonate] | 252.5 to 404.06 | 252.55 to 398.6 | <0.001 | 100 | 65.7 | 40.3 | 30.5 | 22.2 | – | – | – | – | –
C=C1CC[C@@]2(O)C3Cc4ccc(OC(=O)CCCCCCC/C=C\CCCCCCCC)c5c4[C@@]2(CCN3CC2CC2)[C@H]1O5 [Compound 36, (4aS,7aS,12bS)-3-(cyclopropylmethyl)-4a-hydroxy-7-methylene-2,3,4,4a,5,6,7,7a-octahydro-1H-4,12-methanobenzofuro[3,2-e]isoquinolin-9-yl oleate] | >407 | >408 | – | 100 | 74.4 | 66.3 | 39.8 | 19.1 | >217 | >418.7 | 20 to 30 | >411.6 | –
CCCCCCCCCCCCCCCCCCCC(=O)Oc1ccc2c3c1O[C@H]1C(=O)CC[C@@]4(O)C(C2)N(CC2CC2)CC[C@]314 [Compound 50, (4aS,7aR,12bS)-3-(cyclopropylmethyl)-4a-hydroxy-7-oxo-2,3,4,4a,5,6,7,7a-octahydro-1H-4,12-methanobenzofuro[3,2-e]isoquinolin-9-yl iconsanoate] | <51 | <52 | <0.001 | 100 | 114.5 | 102.7 | 83.3 | 73.9 | – | – | – | – | –
CCCCCCCCCCCCCCCCCCCCCC(=O)Oc1ccc2c3c1O[C@H]1C(=O)CC[C@@]4(O)C(C2)N(CC2CC2)CC[C@]314 [Compound 51, (4aS,7aR,12bS)-3-(cyclopropylmethyl)-4a-hydroxy-7-oxo-2,3,4,4a,5,6,7,7a-octahydro-1H-4,12-methanobenzofuro[3,2-e]isoquinolin-9-yl docosanoate] | <50 | <46 | <0.001 | 100 | 107.4 | 105.3 | 88.2 | 92.7 | – | – | – | – | –
CCCCC/C=C\C/C=C\CCCCCCCC(=O)Oc1ccc2c3c1O[C@H]1C(=O)CC[C@@]4(O)C(C2)N(CC2CC2)CC[C@]314 [Compound 53, (4aS,7aR,12bS)-3-(cyclopropylmethyl)-4a-hydroxy-7-oxo-2,3,4,4a,5,6,7,7a-octahydro-1H-4,12-methanobenzofuro[3,2-e]isoquinolin-9-yl (9Z,12Z)-octadeca-9,12-di.enoate] | >408.5 | >401.9 | – | 100 | 46.85 | 19.6 | 7.3 | 1.9 | – | – | – | – | >406.3
CCCCCCCCCCCCCCCCCC(=O)Oc1ccc2c3c1O[C@H]1C(=O)CC[C@@]4(O)C(C2)N(CC2CC2)CC[C@]314 [Compound 54, (4aS,7aR,12bS)-3-(cyclopropylmethyl)-4a-hydroxy-7-oxo-2,3,4,4a,5,6,7,7a-octahydro-1H-4,12-methanobenzofuro[3,2-e]isoquinolin-9-yl stearate] | <51 | <50 | <0.001 | 100 | 98.8 | 62.4 | 45.6 | 19.4 | – | – | – | – | –
CCCCCCCCCCCCCC(=O)Oc1ccc2c3c1O[C@H]1C(=O)CC[C@@]4(O)C(C2)N(CC2CC2)CC[C@]314 [Compound 57, (4aS,7aR,12bS)-3-(cyclopropylmethyl)-4a-hydroxy-7-oxo-2,3,4,4a,5,6,7,7a-octahydro-1H-4,12-methanobenzofuro[3,2-e]isoquinolin-9-yl tetradecanoate] | >423.7 | >417.3 | <0.001 | 100 | 10.5 | 3.2 | 1.2 | 0 | – | – | – | – | –
CCCCCCCCCCCCCCC(=O)Oc1ccc2c3c1O[C@H]1C(=O)CC[C@@]4(O)C(C2)N(CC2CC2)CC[C@]314 [Compound 58, (4aS,7aR,12bS)-3-(cyclopropylmethyl)-4a-hydroxy-7-oxo-2,3,4,4a,5,6,7,7a-octahydro-1H-4,12-methanobenzofuro[3,2-e]-isoquinolin-9-yl pentadecanoate] | 101.8 to 203.6 | 99.4 to 198.8 | – | 100 | 37 | 20 | 2.9 | 1.8 | – | – | – | – | –
